From patent publication US10273248B2, “Glucose uptake inhibitors” (Kadmon Corporation LLC, priority 2015, dated 2019)

tested on: glycolysis in HT1080 cells; test: Glycolysis assay: oligomycin plus compound, cellular ATP by Cell Titer Glo; assay type: cell-based; conditions: 10 μM oligomycin, one hour, class symbols
How it was run: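 Confluent HT1080 cells treated 1 h with compound plus 10 μM oligomycin to block mitochondrial ATP, so remaining ATP reflects glycolysis. Cellular ATP read by Cell Titer-Glo luminescence; IC50 derived from dose-response curves.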

Row | SMILES | IC50 [nM]
1 | O=C(Nc1cccc(-c2nc(Nc3ccc(-c4cn[nH]c4)cc3)c3sccc3n2)c1)c1cccnc1 [Example 178, N-(3-(4-((4-(1H-pyrazol-4-yl)phenyl)amino)thieno[3,2-d]pyrimidin-2-yl)phenyl)nicotinamide] | 10 to 100

same assay, conditions: Homo sapiens, HT-1080, 1 h, 10 μM oligomycin, one hour, class symbols

Row | SMILES | IC50 [nM]
2 | O=C(COc1cccc(-c2nc3c(c(Nc4ccc(-c5cn[nH]c5)cc4)n2)CNCC3)c1)NC1CCC1 [Example 157, 2-(3-(4-((4-(1H-pyrazol-4-yl)phenyl)amino)-5,6,7,8-tetrahydropyrido[4,3-d]pyrimidin-2-yl)phenoxy)-N-cyclobutylacetamide] | 101 to 250
3 | CC(C)N1CCc2nc(-c3cccc(OCC(=O)NC4CCC4)c3)nc(Nc3ccc(-c4cn[nH]c4)cc3)c2C1 [Example 159, 2-(3-(4-((4-(1H-pyrazol-4-yl)phenyl)amino)-6-isopropyl-5,6,7,8-tetrahydropyrido[4,3-d]pyrimidin-2-yl)phenoxy)-N-cyclobutylacetamide] | 251 to 500
4 | CCN1CCc2nc(-c3cccc(OCC(=O)NC4CCC4)c3)nc(Nc3ccc(-c4cn[nH]c4)cc3)c2C1 [Example 160, 2-(3-(4-((4-(1H-pyrazol-4-yl)phenyl)amino)-6-ethyl-5,6,7,8-tetrahydropyrido[4,3-d]pyrimidin-2-yl)phenoxy)-N-cyclobutylacetamide] | 251 to 500
5 | CC(C)CNC(=O)COc1cccc(-c2nc3c(c(Nc4ccc(-c5cn[nH]c5)cc4)n2)CNCC3)c1 [Example 161, 2-(3-(4-((4-(1H-pyrazol-4-yl)phenyl)amino)-5,6,7,8-tetrahydropyrido[4,3-d]pyrimidin-2-yl)phenoxy)-N-isobutylacetamide] | 251 to 500
6 | CCN1CCc2nc(-c3cccc(OCC(=O)NCC(C)C)c3)nc(Nc3ccc(-c4cn[nH]c4)cc3)c2C1 [Example 164, 2-(3-(4-((4-(1H-pyrazol-4-yl)phenyl)amino)-6-ethyl-5,6,7,8-tetrahydropyrido[4,3-d]pyrimidin-2-yl)phenoxy)-N-isobutylacetamide] | 251 to 500
7 | CCC(C)(C)NC(=O)COc1cccc(-c2nc(Nc3ccc(-c4cn[nH]c4)cc3)c3ccncc3n2)c1 [Example 165, 2-(3-(4-((4-(1H-pyrazol-4-yl)phenyl)amino)pyrido[3,4-d]pyrimidin-2-yl)phenoxy)-N-(tert-pentyl)acetamide] | 10 to 100
8 | CCC(C)(C)NC(=O)COc1cccc(-c2nc3c(c(Nc4ccc(-c5cn[nH]c5)cc4)n2)COCC3)c1 [Example 166, 2-(3-(4-((4-(1H-pyrazol-4-yl)phenyl)amino)-7,8-dihydro-5H-pyrano[4,3-d]pyrimidin-2-yl)phenoxy)-N-(tert-pentyl)acetamide] | 10 to 100
9 | CC(C)(C)CNC(=O)COc1cccc(-c2nc3c(c(Nc4ccc(-c5cn[nH]c5)cc4)n2)CNCC3)c1 [Example 167, 2-(3-(4-((4-(1H-pyrazol-4-yl)phenyl)amino)-5,6,7,8-tetrahydropyrido[4,3-d]pyrimidin-2-yl)phenoxy)-N-neopentylacetamide] | 10 to 100
10 | CN1CCc2nc(-c3cccc(OCC(=O)NCC(C)(C)C)c3)nc(Nc3ccc(-c4cn[nH]c4)cc3)c2C1 [Example 168, 2-(3-(4-((4-(1H-pyrazol-4-yl)phenyl)amino)-6-methyl-5,6,7,8-tetrahydropyrido[4,3-d]pyrimidin-2-yl)phenoxy)-N-neopentylacetamide] | 101 to 250
11 | CCN1CCc2nc(-c3cccc(OCC(=O)NCC(C)(C)C)c3)nc(Nc3ccc(-c4cn[nH]c4)cc3)c2C1 [Example 170, 2-(3-(4-((4-(1H-pyrazol-4-yl)phenyl)amino)-6-ethyl-5,6,7,8-tetrahydropyrido[4,3-d]pyrimidin-2-yl)phenoxy)-N-neopentylacetamide] | 101 to 250
12 | CC(C(=O)Nc1cccc(-c2nc3c(c(Nc4ccc(-c5cn[nH]c5)cc4)n2)COC3)c1)N1CCOCC1 (stereo not shown) [Example 171, N-(3-(4-((4-(1H-pyrazol-4-yl)phenyl)amino)-5,7-dihydrofuro[3,4-d]pyrimidin-2-yl)phenyl)-2-morpholinopropanamide] | 501 to 1000
13 | CC(C(=O)Nc1cccc(-c2nc(Nc3ccc(-c4cn[nH]c4)cc3)c3occc3n2)c1)N1CCOCC1 (stereo not shown) [Example 172, N-(3-(4-((4-(1H-pyrazol-4-yl)phenyl)amino)furo[3,2-d]pyrimidin-2-yl)phenyl)-2-morpholinopropanamide] | 101 to 250
14 | CC(C(=O)Nc1cccc(-c2nc(Nc3ccc(-c4cn[nH]c4)cc3)c3sccc3n2)c1)N1CCOCC1 (stereo not shown) [Example 173, N-(3-(4-((4-(1H-pyrazol-4-yl)phenyl)amino)thieno[3,2-d]pyrimidin-2-yl)phenyl)-2-morpholinopropanamide] | 251 to 500
15 | O=C(Nc1cccc(-c2nc(Nc3ccc(-c4cn[nH]c4)cc3)c3sccc3n2)c1)c1ccncc1 [Example 174, N-(3-(4-((4-(1H-pyrazol-4-yl)phenyl)amino)thieno[3,2-d]pyrimidin-2-yl)phenyl)isonicotinamide] | 501 to 1000
16 | O=C(Nc1cccc(-c2nc3c(c(Nc4ccc(-c5cn[nH]c5)cc4)n2)COC3)c1)c1ccncc1 [Example 175, N-(3-(4-((4-(1H-pyrazol-4-yl)phenyl)amino)-5,7-dihydrofuro[3,4-d]pyrimidin-2-yl)phenyl)isonicotinamide] | 501 to 1000
17 | O=C(Nc1cccc(-c2nc(Nc3ccc(-c4cn[nH]c4)cc3)c3sccc3n2)c1)c1ccccn1 [Example 176, N-(3-(4-((4-(1H-pyrazol-4-yl)phenyl)amino)thieno[3,2-d]pyrimidin-2-yl)phenyl)picolinamide] | > 1000
18 | O=C(Nc1cccc(-c2nc3c(c(Nc4ccc(-c5cn[nH]c5)cc4)n2)COC3)c1)c1ccccn1 [Example 177, N-(3-(4-((4-(1H-pyrazol-4-yl)phenyl)amino)-5,7-dihydrofuro[3,4-d]pyrimidin-2-yl)phenyl)picolinamide] | 10 to 100
19 | O=C(COc1cccc(-c2nc(Nc3ccc(-c4cn[nH]c4)cc3)c3sccc3n2)c1)NC1CC(F)(F)C1 [Example 179, 2-(3-(4-((4-(1H-pyrazol-4-yl)phenyl)amino)thieno[3,2-d]pyrimidin-2-yl)phenoxy)-N-(3,3-difluorocyclobutyl)acetamide] | 251 to 500
20 | O=C(COc1cccc(-c2nc(Nc3ccc(-c4cn[nH]c4)cc3)c3sccc3n2)c1)NC1CCCCC1 [Example 180, 2-(3-(4-((4-(1H-pyrazol-4-yl)phenyl)amino)thieno[3,2-d]pyrimidin-2-yl)phenoxy)-N-cyclohexylacetamide] | 101 to 250
21 | CCC(CC)NC(=O)COc1cccc(-c2nc(Nc3ccc(-c4cn[nH]c4)cc3)c3sccc3n2)c1 [Example 181, 2-(3-(4-((4-(1H-pyrazol-4-yl)phenyl)amino)thieno[3,2-d]pyrimidin-2-yl)phenoxy)-N-(pentan-3-yl)acetamide] | 251 to 500
22 | CC(C)NC(=O)COc1cncc(-c2nc(Nc3ccc(-c4cn[nH]c4)cc3)c3ccsc3n2)c1 [Example 182, 2-((5-(4-((4-(1H-pyrazol-4-yl)phenyl)amino)thieno[2,3-d]pyrimidin-2-yl)pyridin-3-yl)oxy)-N-isopropylacetamide] | > 1000
23 | CN1CCN(CC(=O)Nc2cccc(-c3nc(Nc4ccc(-c5cn[nH]c5)cc4)c4sccc4n3)c2)CC1 [Example 183, N-(3-(4-((4-(1H-pyrazol-4-yl)phenyl)amino)thieno[3,2-d]pyrimidin-2-yl)phenyl)-2-(4-methylpiperazin-1-yl)acetamide] | 501 to 1000
24 | CN1CCN(CC(=O)Nc2cccc(-c3nc(Nc4ccc(-c5cn[nH]c5)cc4)c4occc4n3)c2)CC1 [Example 184, N-(3-(4-((4-(1H-pyrazol-4-yl)phenyl)amino)furo[3,2-d]pyrimidin-2-yl)phenyl)-2-(4-methylpiperazin-1-yl)acetamide] | 501 to 1000
25 | CC(C)NC(=O)C(C)Oc1cccc(-c2nc3c(c(Nc4ccc(-c5cn[nH]c5)cc4)n2)COC3)c1 (stereo not shown) [Example 185, 2-(3-(4-((4-(1H-pyrazol-4-yl)phenyl)amino)-5,7-dihydrofuro[3,4-d]pyrimidin-2-yl)phenoxy)-N-isopropylpropanamide] | > 1000
26 | CC(C)CNC(=O)C(C)Oc1cccc(-c2nc3c(c(Nc4ccc(-c5cn[nH]c5)cc4)n2)COC3)c1 (stereo not shown) [Example 186, 2-(3-(4-((4-(1H-pyrazol-4-yl)phenyl)amino)-5,7-dihydrofuro[3,4-d]pyrimidin-2-yl)phenoxy)-N-isobutylpropanamide] | > 1000
27 | CCC(C)NC(=O)C(C)Oc1cccc(-c2nc3c(c(Nc4ccc(-c5cn[nH]c5)cc4)n2)COC3)c1 (stereo not shown) [Example 187, 2-(3-(4-((4-(1H-pyrazol-4-yl)phenyl)amino)-5,7-dihydrofuro[3,4-d]pyrimidin-2-yl)phenoxy)-N-(sec-butyl)propanamide] | > 1000
28 | CC(Oc1cccc(-c2nc3c(c(Nc4ccc(-c5cn[nH]c5)cc4)n2)COC3)c1)C(=O)NC(C)(C)C (stereo not shown) [Example 188, 2-(3-(4-((4-(1H-pyrazol-4-yl)phenyl)amino)-5,7-dihydrofuro[3,4-d]pyrimidin-2-yl)phenoxy)-N-(tert-butyl)propanamide] | > 1000
29 | CC(Oc1cccc(-c2nc3c(c(Nc4ccc(-c5cn[nH]c5)cc4)n2)COC3)c1)C(=O)NCC(C)(C)C (stereo not shown) [Example 189, 2-(3-(4-((4-(1H-pyrazol-4-yl)phenyl)amino)-5,7-dihydrofuro[3,4-d]pyrimidin-2-yl)phenoxy)-N-neopentylpropanamide] | 251 to 500

same assay, conditions: Homo sapiens, HT-1080, 1 h, 10 μM oligomycin, one hour, number printed instead of class

Row | SMILES | IC50 [nM]
30 | CC(C)N1CCc2nc(-c3cccc(OCC(=O)NCC(C)(C)C)c3)nc(Nc3ccc(-c4cn[nH]c4)cc3)c2C1 [Example 169, 2-(3-(4-((4-(1H-pyrazol-4-yl)phenyl)amino)-6-isopropyl-5,6,7,8-tetrahydropyrido[4,3-d]pyrimidin-2-yl)phenoxy)-N-neopentylacetamide] | 290

same assay, conditions: one hour, alone

Row | SMILES | cellular ATP levels, agent alone
31 | CC[C@H]1/C=C/C=C/C[C@@H](C)[C@H](O)[C@@](C)(O)C(=O)[C@@H](C)[C@H](O)[C@@H](C)C(=O)[C@@H](C)[C@H](O)[C@@H](C)/C=C/C(=O)O[C@@H]2[C@H](C)[C@H](CC1)O[C@]1(CC[C@H](C)[C@H](C[C@@H](C)O)O1)[C@H]2C [oligomycin, Oligomycin, reference compound] | neither oligomycin alone nor control GLUT1 inhibitors substantially decrease cellular ATP levels
